Laboratory results published in PMC9030932, “Development of Dibenzothiazepine Derivatives as Multifunctional Compounds for Neuropathic Pain” (Pharmaceuticals, 2022).
Like-named read-outs stand apart in the source and are kept apart here. Marks after values point to notes of the source that are not given here.

How the values were obtained:
Type in all cases: cell-based
[1] = molecular target: human dopamine transporter (hDAT) (Homo sapiens, UniProt Q01959); assay: Neurotransmitter transporter uptake assay, HEK-hDAT; conditions: for inhibition at 10 µM: read-out: % Inhibition at 10 μM hDAT
[2] = molecular target: T1, human μ-opioid receptor (OPRM1) (Homo sapiens, UniProt P35372); assay: Intracellular calcium mobilization (FLIPR Tetra), HEK-hMOR agonism; conditions: for % Stimulation at 10 μM, OPRM1 Agonism against DAMGO (3.9 μM): HEK-hMOR calcium mobilization, normalized to Emax of DAMGO at 3.9 μM
T1 construct: host or cells: HEK293 (constitutive expression)

hOPRM1 receptor = molecular target: T2, hOPRM1 receptor (Homo sapiens, UniProt P35372); assay: PathHunter CHO-K1 OPRM1 β-arrestin recruitment assay
T2 construct: host or cells: CHO-K1

[3] = molecular target: human serotonin transporter (hSERT) (Homo sapiens, UniProt P31645); assay: Neurotransmitter transporter uptake assay, HEK-hSERT; conditions: for inhibition at 10 µM: read-out: % Inhibition at 10 μM hSERT
[4] = molecular target: human norepinephrine transporter (hNET) (Homo sapiens, UniProt P23975); assay: Neurotransmitter transporter uptake assay, HEK-hNET; conditions: read-out: % Inhibition at 10 μM hNET
[5] = molecular target: T3, human κ-opioid receptor (OPRK1) (Homo sapiens, UniProt P41145); assay: Intracellular calcium mobilization (FLIPR Tetra), HEK-hKOR agonism; conditions: read-out: % Stimulation at 10 μM, OPRK1 Agonism against DynorphinA (370 nM)
T3 construct: host or cells: HEK293 (constitutive expression)
Description: Intracellular calcium mobilization was measured by using FLIPR Tetra System (Molecular Devices, Sunnyvale, CA, USA) in accordance with manufacturer’s instruction. […] Subsequently, the plate was transferred to the FLIPR tetra system for treating 50 μL of the 5× compounds diluted in loading buffer and reading intracellular calcium mobilization. The final concentration of DMSO was 0.1%. […] A dose response curve was generated with the changes in Relative Fluorescence Units (∆RFU) versus Log10 dose.
Experimental details for Biology
Cell culture. HEK293 cells stably expressing human DA transporter (HEK-hDAT), human NE transporter (HEK-hNET) and human serotonin transporter (HEK-hSERT) were kindly provided by Professor Bryan Roth (University of North Carolina at Chapel Hill). And HEK293 cells constitutively expressing human κ- or μ- opioid receptor (HEK-hKOR_NM000912 or HEK-hMOR_NM000914) were constructed by Professor Ki Duk Park (in Korea Institute of Science […]
Europins DiscoveRx (Fremont, CA, USA). Cells were mainta ined in Dulbecco's modified Eagle's medium (HyClone, Logan, UT, USA) supplemented with 10%(v/v) fetal bovine serum (FBS, HyClone, Logan, UT, USA), penicillin (100 U/mL), and streptomycin (100 μg/mL) in the […]
for HEK-hDAT, HEK-hNET, HEK-hSERT, HEK-hKOR and HEK-hMOR respectively) in a humidified 5% CO2 incubator at 37 °C. In case of both HEK-hKOR and HEK-hMOR, cells were additionally maintained in 0.2 mg/mL hygromycin B, 1 μg/mL puromycin B, 1× non-essential amino acids. The cells were subcultured every 3-4 days. […]

[6] = 10 μM, HEK-hSERT, mean ± SEM, n = 3–6
[7] = 10 μM, HEK-hNET, mean ± SEM, n = 3–6

Chain of human dopamine transporter (hDAT) (Q01959 whole entry): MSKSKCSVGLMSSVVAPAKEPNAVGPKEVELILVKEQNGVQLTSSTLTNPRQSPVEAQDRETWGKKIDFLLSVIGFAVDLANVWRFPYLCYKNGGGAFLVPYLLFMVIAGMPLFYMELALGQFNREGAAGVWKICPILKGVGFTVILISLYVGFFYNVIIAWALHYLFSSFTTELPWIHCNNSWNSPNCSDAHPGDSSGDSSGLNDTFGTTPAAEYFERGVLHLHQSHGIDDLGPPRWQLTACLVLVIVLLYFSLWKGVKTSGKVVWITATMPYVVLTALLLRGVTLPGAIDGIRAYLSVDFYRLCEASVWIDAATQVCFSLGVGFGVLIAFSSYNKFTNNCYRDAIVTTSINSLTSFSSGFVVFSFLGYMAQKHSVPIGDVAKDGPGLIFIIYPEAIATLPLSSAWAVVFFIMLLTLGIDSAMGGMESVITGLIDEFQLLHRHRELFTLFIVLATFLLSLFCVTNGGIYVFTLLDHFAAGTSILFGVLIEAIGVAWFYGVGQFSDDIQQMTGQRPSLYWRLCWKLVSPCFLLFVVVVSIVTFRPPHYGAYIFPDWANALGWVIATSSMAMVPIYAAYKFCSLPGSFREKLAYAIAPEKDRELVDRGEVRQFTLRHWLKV
T3 sequence (P41145 whole entry): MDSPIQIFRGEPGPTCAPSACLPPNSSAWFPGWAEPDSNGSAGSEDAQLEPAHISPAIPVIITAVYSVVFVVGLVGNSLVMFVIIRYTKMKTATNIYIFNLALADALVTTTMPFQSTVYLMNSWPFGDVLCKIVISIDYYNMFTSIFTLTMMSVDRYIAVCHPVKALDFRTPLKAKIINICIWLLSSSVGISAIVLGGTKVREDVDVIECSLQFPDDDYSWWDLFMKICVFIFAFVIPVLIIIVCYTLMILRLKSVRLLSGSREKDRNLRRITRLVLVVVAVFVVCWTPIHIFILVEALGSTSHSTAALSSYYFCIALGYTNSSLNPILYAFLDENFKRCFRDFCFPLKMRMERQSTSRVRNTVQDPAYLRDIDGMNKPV
T1 sequence (P35372 whole entry): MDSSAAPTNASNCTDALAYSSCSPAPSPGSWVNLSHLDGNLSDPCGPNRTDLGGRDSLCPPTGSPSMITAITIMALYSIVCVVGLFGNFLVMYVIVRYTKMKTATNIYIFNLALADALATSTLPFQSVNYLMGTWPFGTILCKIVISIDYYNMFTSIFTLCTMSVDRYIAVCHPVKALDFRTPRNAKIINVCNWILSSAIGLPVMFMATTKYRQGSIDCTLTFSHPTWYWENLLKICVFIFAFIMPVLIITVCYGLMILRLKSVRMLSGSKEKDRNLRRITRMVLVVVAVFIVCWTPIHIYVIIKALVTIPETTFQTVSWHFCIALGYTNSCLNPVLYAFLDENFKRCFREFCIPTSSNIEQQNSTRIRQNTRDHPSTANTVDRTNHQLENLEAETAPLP
T2 sequence (P35372 whole entry): as above
Chain of human serotonin transporter (hSERT) (P31645 whole entry): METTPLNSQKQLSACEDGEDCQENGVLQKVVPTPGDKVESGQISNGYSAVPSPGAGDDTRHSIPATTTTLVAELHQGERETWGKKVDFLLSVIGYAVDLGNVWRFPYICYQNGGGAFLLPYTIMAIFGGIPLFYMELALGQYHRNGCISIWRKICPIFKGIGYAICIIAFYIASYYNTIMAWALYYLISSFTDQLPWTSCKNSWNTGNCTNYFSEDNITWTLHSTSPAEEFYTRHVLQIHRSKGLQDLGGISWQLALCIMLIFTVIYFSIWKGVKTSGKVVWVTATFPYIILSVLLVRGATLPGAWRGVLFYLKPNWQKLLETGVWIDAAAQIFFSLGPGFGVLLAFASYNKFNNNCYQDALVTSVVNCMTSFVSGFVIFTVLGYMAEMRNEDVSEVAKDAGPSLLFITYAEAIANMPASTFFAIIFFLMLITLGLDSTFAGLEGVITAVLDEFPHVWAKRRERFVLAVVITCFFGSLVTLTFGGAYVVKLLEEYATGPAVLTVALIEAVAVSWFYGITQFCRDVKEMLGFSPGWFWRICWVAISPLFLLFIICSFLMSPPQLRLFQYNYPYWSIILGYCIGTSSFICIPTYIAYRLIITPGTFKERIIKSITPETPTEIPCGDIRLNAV
Chain of human norepinephrine transporter (hNET) (P23975 whole entry): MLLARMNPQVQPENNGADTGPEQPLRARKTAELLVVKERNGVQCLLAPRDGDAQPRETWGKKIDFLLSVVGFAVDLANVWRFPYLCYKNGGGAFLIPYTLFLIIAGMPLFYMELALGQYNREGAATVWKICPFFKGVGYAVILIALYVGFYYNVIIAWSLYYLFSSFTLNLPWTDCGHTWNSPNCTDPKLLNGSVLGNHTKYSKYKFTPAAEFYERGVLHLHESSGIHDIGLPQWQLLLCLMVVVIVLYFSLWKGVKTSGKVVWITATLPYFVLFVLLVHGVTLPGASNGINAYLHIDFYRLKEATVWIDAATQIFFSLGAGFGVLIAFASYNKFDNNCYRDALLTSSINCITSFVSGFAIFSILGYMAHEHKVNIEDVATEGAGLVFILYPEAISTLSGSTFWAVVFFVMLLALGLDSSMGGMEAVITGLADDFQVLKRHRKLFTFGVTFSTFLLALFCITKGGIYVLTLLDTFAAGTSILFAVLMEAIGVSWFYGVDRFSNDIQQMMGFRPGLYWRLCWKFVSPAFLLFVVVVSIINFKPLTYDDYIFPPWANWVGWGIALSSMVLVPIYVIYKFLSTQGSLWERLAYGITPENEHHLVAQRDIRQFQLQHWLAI

## CN1c2ccccc2C(NCCCCCCCC=CCc2c[nH]c3ccccc23)c2ccc(Cl)cc2S1(=O)=O (centres unmarked) [Compound 21]
[1]
  inhibition at 10 µM: 8.92 ± 6.1%
[2]
  % Stimulation at 10 μM, OPRM1 Agonism against DAMGO (3.9 μM): <10% ^b
hOPRM1 receptor
  EC50: > 10 µM
[3]; [6]
  inhibition at 10 µM: 26.3 ± 6.4%
[4]; [7]
  inhibition at 10 µM: 5.64 ± 4.5%
[5]
  activation at 10 µM: < 10%

## CN1c2ccccc2C(NCCCCCC(=O)NCCc2c[nH]c3ccc(O)cc23)c2ccc(Cl)cc2S1(=O)=O (centres unmarked) [Compound 11e, 6-((3-chloro-6-methyl-5,5-dioxido-6,11-dihydrodibenzo[c,f][1,2]thiazepin-11-yl)amino)-N-(2-(5-hydroxy-1H-indol-3-yl)ethyl)hexanamide]
[1]
  inhibition at 10 µM: 40.2 ± 0.12%
[3]
  IC50: 6.74 ± 0.38 µM
[4]; [7]
  inhibition at 10 µM: 30.1 ± 5%

## CN1c2ccccc2C(NCCc2c[nH]c3ccc(O)cc23)c2ccc(Cl)cc2S1(=O)=O (centres unmarked) [Compound 7, 3-chloro-11-((2-(5-hydroxy-1H-indol-3-yl)ethyl)amino)-6-methyl-6,11-dihydrodibenzo[c,f][1,2]thiazepine 5,5-dioxide]
[1]
  inhibition at 10 µM: 36.2 ± 2.7%
[3]; [6]
  inhibition at 10 µM: 37.5 ± 2.5%
[4]; [7]
  inhibition at 10 µM: 30.8 ± 2.8%

## CN1c2ccccc2C(NCCCCCCC(=O)NCCc2c[nH]c3ccccc23)c2ccc(Cl)cc2S1(=O)=O (centres unmarked) [Compound 14, N-(2-(1H-indol-3-yl)ethyl)-7-((3-chloro-6-methyl-5,5-dioxido-6,11-dihydrodibenzo[c,f][1,2]thiazepin-11-yl)amino)heptanamide]
[1]
  IC50: 3.81 ± 1.4 µM
[2]
  % Stimulation at 10 μM, OPRM1 Agonism against DAMGO (3.9 μM): 62.3 ± 2.9% ^b
hOPRM1 receptor
  EC50: 0.113 ± 0.003 µM
[3]; [6]
  inhibition at 10 µM: 50.3 ± 3.4%
[4]; [7]
  inhibition at 10 µM: 65.2 ± 3.4%
[5]
  activation at 10 µM: < 10%

## CN1c2ccccc2C(NCCCCCCCNCCc2c[nH]c3ccc(C#N)cc23)c2ccc(Cl)cc2S1(=O)=O (centres unmarked) [Compound 27, 3-(2-((7-((3-chloro-6-methyl-5,5-dioxido-6,11-dihydrodibenzo[c,f][1,2]thiazepin-11-yl)amino)heptyl)amino)ethyl)-1H-indole-5-carbonitrile]
[1]
  IC50: 4.98 ± 2.1 µM
[2]
  % Stimulation at 10 μM, OPRM1 Agonism against DAMGO (3.9 μM): 65.9 ± 2.8% ^b
hOPRM1 receptor
  EC50: 3.28 ± 0.642 µM
[3]
  IC50: 0.462 ± 0.034 µM
[4]; [7]
  inhibition at 10 µM: 63.6 ± 4.4%
[5]
  activation at 10 µM: < 10%

## COc1ccc2[nH]cc(CCNC(=O)CCCCCCNC3c4ccccc4N(C)S(=O)(=O)c4cc(Cl)ccc43)c2c1 (centres unmarked) [Compound 13, 7-((3-chloro-6-methyl-5,5-dioxido-6,11-dihydrodibenzo[c,f][1,2]thiazepin-11-yl)amino)-N-(2-(5-methoxy-1H-indol-3-yl)ethyl)heptanamide]
[1]
  inhibition at 10 µM: 25.6 ± 9.7%
[3]; [6]
  inhibition at 10 µM: 39.7 ± 6.3%
[4]; [7]
  inhibition at 10 µM: 23.7 ± 7.5%

## Fc1ccc(C(OCCN2CCN(CCCc3ccccc3)CC2)c2ccc(F)cc2)cc1 [GBR12909, reference compound]
[1]
  inhibition at 10 µM: 85.9 ± 0.27%
[3]
  inhibition at 10 µM: 70.6 ± 1.3%
[4]
  inhibition at 10 µM: 79.1 ± 0.71%

## CN1c2ccccc2C(NCCCC(=O)NCCc2c[nH]c3ccc(O)cc23)c2ccc(Cl)cc2S1(=O)=O (centres unmarked) [Compound 11c, 4-((3-chloro-6-methyl-5,5-dioxido-6,11-dihydrodibenzo[c,f][1,2]thiazepin-11-yl)amino)-N-(2-(5-hydroxy-1H-indol-3-yl)ethyl)butanamide]
[1]
  inhibition at 10 µM: 41.3 ± 5.7%
[3]; [6]
  inhibition at 10 µM: 35.5 ± 3.7%
[4]; [7]
  inhibition at 10 µM: 24.3 ± 7.4%

## CN1c2ccccc2C(NCC(=O)NCCc2c[nH]c3ccc(O)cc23)c2ccc(Cl)cc2S1(=O)=O (centres unmarked) [Compound 11a, 2-((3-chloro-6-methyl-5,5-dioxido-6,11-dihydrodibenzo[c,f][1,2]thiazepin-11-yl)amino)-N-(2-(5-hydroxy-1H-indol-3-yl)ethyl)acetamide]
[1]
  inhibition at 10 µM: 33.2 ± 6.5%
[3]; [6]
  inhibition at 10 µM: 50.9 ± 4.1%
[4]; [7]
  inhibition at 10 µM: 13.2 ± 2.3%

## CNCCC(Oc1ccccc1OC)c1ccccc1 (centres unmarked) [Nisoxetine, reference compound]
[1]
  inhibition at 10 µM: 79.7 ± 1.4%
[3]
  inhibition at 10 µM: 79.8 ± 0.32%

## CN1c2ccccc2C(NCCC(=O)NCCc2c[nH]c3ccc(O)cc23)c2ccc(Cl)cc2S1(=O)=O (centres unmarked) [Compound 11b, 3-((3-chloro-6-methyl-5,5-dioxido-6,11-dihydrodibenzo[c,f][1,2]thiazepin-11-yl)amino)-N-(2-(5-hydroxy-1H-indol-3-yl)ethyl)propanamide]
[1]
  inhibition at 10 µM: 44.9 ± 4.2%
[3]
  IC50: 4.08 ± 0.032 µM
[4]; [7]
  inhibition at 10 µM: 54.8 ± 3.7%

## CN(CCCCCCCNC1c2ccccc2N(C)S(=O)(=O)c2cc(Cl)ccc21)CCC(Oc1ccc(C(F)(F)F)cc1)c1ccccc1 (centres unmarked) [Compound 26, 3-chloro-6-methyl-11-((7-(methyl(3-phenyl-3-(4-(trifluoromethyl)phenoxy)propyl)amino)heptyl)amino)-6,11-dihydrodibenzo[c,f][1,2]thiazepine 5,5-dioxide]
[1]
  inhibition at 10 µM: 23.6 ± 12%
[2]
  % Stimulation at 10 μM, OPRM1 Agonism against DAMGO (3.9 μM): <10% ^b
hOPRM1 receptor
  EC50: > 10 µM
[3]
  IC50: 2.18 ± 0.37 µM
[4]; [7]
  inhibition at 10 µM: 7.07 ± 4.1%
[5]
  activation at 10 µM: < 10%

## CC(C)C[C@H](CNC(=O)CCCCCCNC1c2ccccc2N(C)S(=O)(=O)c2cc(Cl)ccc21)CC(=O)O (stereo partly drawn) [Compound 25, (3S)-3-((7-((3-chloro-6-methyl-5,5-dioxido-6,11-dihydrodibenzo[c,f][1,2]thiazepin-11-yl)amino)heptanamido)methyl)-5-methylhexanoic acid]
[1]
  inhibition at 10 µM: 17.6 ± 8.9%
[2]
  EC50: 2410 ± 144 nM
hOPRM1 receptor
  EC50: > 10 µM
[3]; [6]
  inhibition at 10 µM: 11.3 ± 2.5%
[4]; [7]
  inhibition at 10 µM: 21 ± 2.6%
[5]
  activation at 10 µM: < 10%

## CN1c2ccccc2C(NCCCCCCCCCCc2c[nH]c3ccccc23)c2ccc(Cl)cc2S1(=O)=O (centres unmarked) [Compound 22]
[1]
  inhibition at 10 µM: 1.95 ± 0.06%
[2]
  % Stimulation at 10 μM, OPRM1 Agonism against DAMGO (3.9 μM): 11.8 ± 1.9% ^b
hOPRM1 receptor
  EC50: > 10 µM
[3]; [6]
  inhibition at 10 µM: 17.9 ± 7.5%
[4]; [7]
  inhibition at 10 µM: 5.56 ± 0.07%
[5]
  activation at 10 µM: < 10%

## CN1c2ccccc2C(NCCCCC(=O)NCCc2c[nH]c3ccc(O)cc23)c2ccc(Cl)cc2S1(=O)=O (centres unmarked) [Compound 11d, 5-((3-chloro-6-methyl-5,5-dioxido-6,11-dihydrodibenzo[c,f][1,2]thiazepin-11-yl)amino)-N-(2-(5-hydroxy-1H-indol-3-yl)ethyl)pentanamide]
[1]
  inhibition at 10 µM: 41.3 ± 7.6%
[3]; HEK-hSERT, neurotransmitter uptake, mean ± SEM, n = 3–6, read-out: IC50 hSERT
  IC50: 10.1 ± 0.5 µM
[4]; [7]
  inhibition at 10 µM: 21.1 ± 4.7%
